These results are taken from patent US20250034136A1 (Nimbus Wadjet, Inc., priority 2023, published 2025).

Experiment [1] addresses WRN (BV08), human Werner helicase (Uniprot Q14191, amino acids 517-1235 with L1074F point mutation) (Homo sapiens (Human), UniProt Q14191, L1074F). The experiment is described as follows: WRN (BV08) ADP-Glo assay. The note with it: class symbols A-E, read-out: ADP-Glo_hWRN_IC50. It counts as biochemical.
Experiment [2] has as its system p21 induction in HCT116 cells. The experiment is described as follows: p21 induction in HCT116 cells. It counts as cell-based. The note with it: Homo sapiens, HCT-116, 24 h, HCT116 cells, 24 h compound incubation; read-out: P21_EC50. Put shortly: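 HCT116 cells, 2,000/well, treated 24 h at 37 °C with 11-point compound dilutions in duplicate. Fixed, then immunostained for p21 and GAPDH and read by near-IR imaging at 800/700 nm. Normalized to DMSO (low) and reference WRN inhibitor (high) controls; EC50 from non-linear regression.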

Sequence of WRN (BV08), human Werner helicase (Uniprot Q14191, amino acids 517-1235 with L1074F point mutation) (Q14191 other isoform, or with tags, fused parts or gaps L1074F (already in the parent)): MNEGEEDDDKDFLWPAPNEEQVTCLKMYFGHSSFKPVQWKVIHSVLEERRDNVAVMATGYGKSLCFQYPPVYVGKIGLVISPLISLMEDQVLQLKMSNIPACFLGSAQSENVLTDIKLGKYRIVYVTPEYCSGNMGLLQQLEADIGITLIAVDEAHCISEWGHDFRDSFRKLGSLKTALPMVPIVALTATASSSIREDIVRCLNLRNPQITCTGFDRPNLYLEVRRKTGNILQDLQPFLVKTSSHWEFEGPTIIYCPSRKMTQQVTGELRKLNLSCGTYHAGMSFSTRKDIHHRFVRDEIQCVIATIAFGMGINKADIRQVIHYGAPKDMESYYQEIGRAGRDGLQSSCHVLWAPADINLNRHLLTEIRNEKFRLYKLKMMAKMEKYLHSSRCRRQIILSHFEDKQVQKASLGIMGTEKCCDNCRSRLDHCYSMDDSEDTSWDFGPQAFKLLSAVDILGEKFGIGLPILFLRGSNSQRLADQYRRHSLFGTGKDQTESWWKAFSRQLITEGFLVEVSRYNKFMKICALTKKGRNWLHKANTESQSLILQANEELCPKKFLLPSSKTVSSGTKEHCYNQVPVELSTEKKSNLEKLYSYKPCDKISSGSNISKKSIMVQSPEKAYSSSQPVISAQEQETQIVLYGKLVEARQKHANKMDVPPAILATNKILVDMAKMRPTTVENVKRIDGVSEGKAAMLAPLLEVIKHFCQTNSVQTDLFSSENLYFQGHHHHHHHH

For `CCc1c(N2CCN(C(=O)c3c(O)ccc4nc[nH]c34)CC2)c(=O)c2ncc(C)nc2n1CC(=O)Nc1ccc(C(F)(F)F)cc1Cl` [I-71, N-(2-chloro-4-(trifluoromethyl)phenyl)-2-(6-ethyl-7-(4-(6-hydroxy-1H-benzo[d]imidazole-7-carbonyl)piperazin-1-yl)-3-methyl-8-oxopyrido[2,3-b]pyrazin-5(8H)-yl)acetamide], the IC50 in experiment [1] lay within 5 to 50 nM. In experiment [2], the EC50 was above 5000 nM.
The like results for `CCc1c(N2CCN(C(=O)c3ncnc(C)c3O)CC2)c(=O)c2nc(N(C)CCOC)cnc2n1CC(=O)Nc1ccc(C(F)(F)F)cc1Cl` [I-72, N-(2-chloro-4-(trifluoromethyl)phenyl)-2-(6-ethyl-7-(4-(5-hydroxy-6-methylpyrimidine-4-carbonyl)piperazin-1-yl)-2-((2-methoxyethyl)(methyl)amino)-8-oxopyrido[2,3-b]pyrazin-5(8H)-yl)acetamide] were, in that order, 5 to 50 nM and above 5000 nM.
The like results for `CCc1c(N2CCN(C(=O)c3ncnc(C)c3O)CC2)c(=O)c2nc(N(C)CCO)cnc2n1CC(=O)Nc1ccc(C(F)(F)F)cc1Cl` [I-73, N-(2-chloro-4-(trifluoromethyl)phenyl)-2-(6-ethyl-7-(4-(5-hydroxy-6-methylpyrimidine-4-carbonyl)piperazin-1-yl)-2-((2-hydroxyethyl)(methyl)amino)-8-oxopyrido[2,3-b]pyrazin-5(8H)-yl)acetamide] were, in that order, 5 to 50 nM and above 5000 nM.
The like results for `CCc1c(N2CCN(C(=O)c3ncnc(C)c3O)CC2)c(=O)c2nc(N(C)CC)cnc2n1CC(=O)Nc1ccc(C(F)(F)F)cc1Cl` [I-74, N-(2-chloro-4-(trifluoromethyl)phenyl)-2-(6-ethyl-2-(ethyl(methyl)amino)-7-(4-(5-hydroxy-6-methylpyrimidine-4-carbonyl)piperazin-1-yl)-8-oxopyrido[2,3-b]pyrazin-5(8H)-yl)acetamide] were, in that order, 5 to 50 nM and 500 to 2000 nM.
On to `CCc1c(N2CCN(C(=O)c3ncnc(C)c3O)CC2)c(=O)c2nc(N3CCCC3)cnc2n1CC(=O)Nc1ccc(C(F)(F)F)cc1Cl` [I-75, N-(2-chloro-4-(trifluoromethyl)phenyl)-2-(6-ethyl-7-(4-(5-hydroxy-6-methylpyrimidine-4-carbonyl)piperazin-1-yl)-8-oxo-2-(pyrrolidin-1-yl)pyrido[2,3-b]pyrazin-5(8H)-yl)acetamide], for which, in experiment [1], the IC50 was in the range of 5 to 50 nM. In addition, the EC50 in experiment [2] lay in the range of 500 to 2000 nM.
The like results for `CCc1c(N2CCN(C(=O)c3c(O)ccc4[nH]ncc34)CC2)c(=O)c2ncc(C)nc2n1CC(=O)Nc1ccc(C(F)(F)F)cc1Cl` [I-76, N-(2-chloro-4-(trifluoromethyl)phenyl)-2-(6-ethyl-7-(4-(5-hydroxy-1H-indazole-4-carbonyl)piperazin-1-yl)-3-methyl-8-oxopyrido[2,3-b]pyrazin-5(8H)-yl)acetamide] were, in that order, 5 to 50 nM and above 5000 nM.
For `CCc1c(N2CCN(C(=O)c3nocc3O)CC2)c(=O)c2ncc(C)nc2n1CC(=O)Nc1ccc(C(F)(F)F)cc1Cl` [I-77, N-(2-chloro-4-(trifluoromethyl)phenyl)-2-(6-ethyl-7-(4-(4-hydroxyisoxazole-3-carbonyl)piperazin-1-yl)-3-methyl-8-oxopyrido[2,3-b]pyrazin-5(8H)-yl)acetamide], the IC50 in experiment [1] was in the range of 5 to 50 nM. In addition, the EC50 in experiment [2] is above 5000 nM.
In the same order, the values of `CCc1c(N2CCN(C(=O)c3ncnc(C)c3O)CC2)c(=O)c2nc(-c3cnn(C)c3)cnc2n1CC(=O)Nc1ccc(C(F)(F)F)cc1Cl` [I-79, N-(2-chloro-4-(trifluoromethyl)phenyl)-2-(6-ethyl-7-(4-(5-hydroxy-6-methylpyrimidine-4-carbonyl)piperazin-1-yl)-2-(1-methyl-1H-pyrazol-4-yl)-8-oxopyrido[2,3-b]pyrazin-5(8H)-yl)acetamide] are 5 to 50 nM and above 5000 nM.
With `CCc1c(N2CCN(C(=O)c3ncnc(C)c3O)CC2)c(=O)c2nc(C)cnc2n1CC(=O)Nc1ccc(C(F)(F)F)cc1Cl` [I-80, N-(2-chloro-4-(trifluoromethyl)phenyl)-2-(6-ethyl-7-(4-(5-hydroxy-6-methylpyrimidine-4-carbonyl)piperazin-1-yl)-2-methyl-8-oxopyrido[2,3-b]pyrazin-5(8H)-yl)acetamide], the IC50 in experiment [1] lay within 5 to 50 nM. Also, in experiment [2], the EC50 was above 5000 nM.
The like results for `CCc1c(N2CCN(C(=O)c3ncnc(C)c3O)CC2)c(=O)c2nc(OC)cnc2n1CC(=O)Nc1ccc(C(F)(F)F)cc1Cl` [I-81, N-(2-chloro-4-(trifluoromethyl)phenyl)-2-(6-ethyl-7-(4-(5-hydroxy-6-methylpyrimidine-4-carbonyl)piperazin-1-yl)-2-methoxy-8-oxopyrido[2,3-b]pyrazin-5(8H)-yl)acetamide] were, in that order, 50 to 100 nM and above 5000 nM.
The like results for `CCc1c(N2CCN(C(=O)c3ncnc(C)c3O)CC2)c(=O)c2nc(C3=CCOCC3)cnc2n1CC(=O)Nc1ccc(C(F)(F)F)cc1Cl` [I-82, N-(2-chloro-4-(trifluoromethyl)phenyl)-2-(2-(3,6-dihydro-2H-pyran-4-yl)-6-ethyl-7-(4-(5-hydroxy-6-methylpyrimidine-4-carbonyl)piperazin-1-yl)-8-oxopyrido[2,3-b]pyrazin-5(8H)-yl)acetamide] were, in that order, 5 to 50 nM and above 5000 nM.
The like results for `CCc1c(N2CCN(C(=O)c3ncnc(C)c3O)CC2)c(=O)c2nc(C#N)cnc2n1CC(=O)Nc1ccc(C(F)(F)F)cc1Cl` [I-83, N-(2-chloro-4-(trifluoromethyl)phenyl)-2-(2-cyano-6-ethyl-7-(4-(5-hydroxy-6-methylpyrimidine-4-carbonyl)piperazin-1-yl)-8-oxopyrido[2,3-b]pyrazin-5(8H)-yl)acetamide] were, in that order, 5 to 50 nM and above 5000 nM.
With `CCc1c(N2CCN(C(=O)c3ncnc(C)c3O)CC2)c(=O)c2nc(C(C)(C)O)cnc2n1CC(=O)Nc1ccc(C(F)(F)F)cc1Cl` [I-84, N-(2-chloro-4-(trifluoromethyl)phenyl)-2-(6-ethyl-7-(4-(5-hydroxy-6-methylpyrimidine-4-carbonyl)piperazin-1-yl)-2-(2-hydroxypropan-2-yl)-8-oxopyrido[2,3-b]pyrazin-5(8H)-yl)acetamide], the IC50 in experiment [1] lay in the range of 50 to 100 nM. Moreover, in experiment [2], the EC50 is above 5000 nM.
In the same order, the values of `CCc1c(N2CCN(C(=O)c3ncnc(C)c3O)CC2)c(=O)c2nc(Br)cnc2n1CC(=O)Nc1ccc(C(F)(F)F)cc1Cl` [I-86, 2-(2-bromo-6-ethyl-7-(4-(5-hydroxy-6-methylpyrimidine-4-carbonyl)piperazin-1-yl)-8-oxopyrido[2,3-b]pyrazin-5(8H)-yl)-N-(2-chloro-4-(trifluoromethyl)phenyl)acetamide] are 5 to 50 nM and 2000 to 5000 nM.
In the same order, the values of `CCc1c(N2CCN(C(=O)c3ncnc(C)c3O)C(C)(C)C2)c(=O)c2nc(N(C)C)cnc2n1CC(=O)Nc1ccc(C(F)(F)F)cc1Cl` [I-87, N-(2-chloro-4-(trifluoromethyl)phenyl)-2-(2-(dimethylamino)-6-ethyl-7-(4-(5-hydroxy-6-methylpyrimidine-4-carbonyl)-3,3-dimethylpiperazin-1-yl)-8-oxopyrido[2,3-b]pyrazin-5(8H)-yl)acetamide] are 5 to 50 nM and 500 to 2000 nM.
In the same order, the values of `CCc1c(N2CCN(C(=O)c3ncnc(C)c3O)CC2)c(=O)c2nc(N3CC[C@H](O)C3)cnc2n1CC(=O)Nc1ccc(C(F)(F)F)cc1Cl` [I-88, (S)-N-(2-chloro-4-(trifluoromethyl)phenyl)-2-(6-ethyl-7-(4-(5-hydroxy-6-methylpyrimidine-4-carbonyl)piperazin-1-yl)-2-(3-hydroxypyrrolidin-1-yl)-8-oxopyrido[2,3-b]pyrazin-5(8H)-yl)acetamide] are 5 to 50 nM and above 5000 nM.
As for `CCc1c(N2CCN(C(=O)c3ncnc(C)c3O)CC2)c(=O)c2nc(N3CCNCC3)cnc2n1CC(=O)Nc1ccc(C(F)(F)F)cc1Cl` [I-89, N-(2-chloro-4-(trifluoromethyl)phenyl)-2-(6-ethyl-7-(4-(5-hydroxy-6-methylpyrimidine-4-carbonyl)piperazin-1-yl)-8-oxo-2-(piperazin-1-yl)pyrido[2,3-b]pyrazin-5(8H)-yl)acetamide], the IC50 in experiment [1] was in the range of 100 to 500 nM. The EC50 in experiment [2] was above 5000 nM.
In the same order, the values of `CCc1c(N2CCN(C(=O)c3ncnc(C)c3O)CC2)c(=O)c2nc(C3=CCOC3)cnc2n1CC(=O)Nc1ccc(C(F)(F)F)cc1Cl` [I-90, N-(2-chloro-4-(trifluoromethyl)phenyl)-2-(2-(2,5-dihydrofuran-3-yl)-6-ethyl-7-(4-(5-hydroxy-6-methylpyrimidine-4-carbonyl)piperazin-1-yl)-8-oxopyrido[2,3-b]pyrazin-5(8H)-yl)acetamide] are 5 to 50 nM and above 5000 nM.
In the same order, the values of `CCc1c(N2CCN(C(=O)c3ncnc(C)c3O)CC2)c(=O)c2nc(N3CCn4nccc43)cnc2n1CC(=O)Nc1ccc(C(F)(F)F)cc1Cl` [I-91, N-(2-chloro-4-(trifluoromethyl)phenyl)-2-(2-(2,3-dihydro-1H-imidazo[1,2-b]pyrazol-1-yl)-6-ethyl-7-(4-(5-hydroxy-6-methylpyrimidine-4-carbonyl)piperazin-1-yl)-8-oxopyrido[2,3-b]pyrazin-5(8H)-yl)acetamide] are 5 to 50 nM and above 5000 nM.
In the same order, the values of `CCc1c(N2CCN(C(=O)c3ncnc(C)c3O)CC2)c(=O)c2nc(N(C)[C@H]3C[C@H](OC)C3)cnc2n1CC(=O)Nc1ccc(C(F)(F)F)cc1Cl` [I-92, N-(2-chloro-4-(trifluoromethyl)phenyl)-2-(6-ethyl-7-(4-(5-hydroxy-6-methylpyrimidine-4-carbonyl)piperazin-1-yl)-2-(((1r,3r)-3-methoxycyclobutyl)(methyl)amino)-8-oxopyrido[2,3-b]pyrazin-5(8H)-yl)acetamide] are 5 to 50 nM and 500 to 2000 nM.
